Experimental data as given in article PMC10945332, “Precision peptide theranostics: developing N- to C-terminus optimized theranostics targeting cholecystokinin-2 receptor” (Theranostics, 2024).
Read-outs that look alike come from different tables or passages of the source. Where a SMILES comes first, the peptide text is derived from it. [ ]: non-standard residue; d: D form. The star is where a group is joined. DOTA = O=C(O)CN1CCN(CC(=O)O)CCN(CC(=O)*)CCN(CC(=O)O)CC1; 1Nal = N[C@@H](Cc1cccc2ccccc12)C(=O)O; NMeF = CN[C@@H](Cc1ccccc1)C(=O)O; NMeNle = CCCC[C@H](NC)C(=O)O; Sar = CNCC(=O)O

What was measured:
[1] = type: in vitro ADME, mouse
Procedure: Metabolic stability is an important determinant of the efficacy of peptide radiopharmaceuticals and their progression as promising theranostic candidates. In vitro, metabolic degradation through hepatic and renal enzymes can be assessed by utilizing liver and kidney tissue homogenates. Radiolabeled peptides [^68Ga]Ga-DOTA-GA4, and D-Ala substituted variants [^68Ga]Ga-DOTA-GA7, [^68Ga]Ga-DOTA-GA11-GA13 were incubated in liver and kidney mouse homogenates, in human serum at 37°C, and in HEPES buffer (pH 7.4) as a negative control. Following a time course experiment, the metabolites were analyzed using HPLC to quantify the % breakdown of the respective parent peptide. […]
To assess the stability of 68Ga radiolabeled peptides against enzymatic degradation, duplicate samples (750-900 pmol/mL, 2-5MBq) were incubated at 37 ℃ with pooled human serum, 15% […]
mouse kidney homogenate, 30% mouse liver homogenate or 20 mM HEPES, pH 7.3 (control).
Human blood was collected, and serum prepared using SSTII advance vacutainer tubes according to the manufacturer’s instructions (Becton Dickinson, New Jersey, USA). Mouse kidney and liver homogenates were prepared by washing the tissues in ice-cold HEPES buffer, pH 7.3 and placing them in pre-chilled tubes containing HEPES buffer and 2.38 mm metal beads (Mo-Bio Laboratories, Hilden, Germany). Tissues were homogenised using the PowerLyzer24 homogeniser (Qiagen, Hilden, Germany) according to the manufacturer’s instructions. 68Ga radiolabeled peptides were then incubated with the various lysates at 37 ℃ and samples were collected at 15, 30, 60 and 90 min. Reactions were terminated by addition of an equal volume of acetonitrile and centrifugation for 2 min at 15,000 rpm. Supernatants were diluted in water before being analysed by HPLC using a Kinetex C18 XB column (5µm

[2] = type: physicochemical
Procedure: Lipophilicity, expressed as the octanol-water partition coefficient, constitutes an important property in drug action, influencing both pharmacokinetic and pharmacodynamics processes. The distribution coefficient (LogD7.4) of [^68Ga]Ga-DOTA-peptides was determined by measuring radioactivity distribution in the aqueous phase (phosphate buffer pH7.4) and the organic phase (n-octanol). […]
To determine the distribution coefficient (logD 7.4), 68Ga radiolabeled peptides [68Ga]Ga-DOTA-GA4, [68Ga]Ga-DOTA-GA7, and [68Ga]Ga-DOTA-GA11–GA13 were diluted to approximately 20 pmol/mL in PBS (pH 7.4) and an equal volume of n-octanol was added. The mixture was vortexed vigorously for 10 cycles of 1 min at room temperature before being centrifuged for 6 min to separate the two phases. Equal volumes from each phase were aliquoted into individual counting tubes and analysed for 1 min using the Perkin Elmer 2480 Wizard2™ gamma counter (PerkinElmer, Massachusetts, USA). The distribution coefficient was calculated using the following equation LogD = […]. […]

[3] = in vivo; settings: female, NSG, mouse, iv, total radioactivity; for SUV at 1 h / SUV at 2 h: SUVmax
Procedure: (§1) In order to assess these promising ligands as potential theranostics, the library of [^68Ga]Ga-DOTA-peptides was evaluated using static small animal PET imaging and quantifying biodistribution studies. This study was performed to investigate tumor uptake as well as the accumulation of radioligands in other organs. Mice bearing A431-CCK2R tumors were imaged at 1- and 2 hours post tracer injection, and tracer biodistribution was evaluated at the 1 hour and 2.5 hour time points to quantify tumor uptake and retention. […]
(§2) Small Animal PET Imaging and Biodistribution Studies
(§3) Female NSG mice (age 11-14 weeks) were sourced from Animal Resources Centre, (Canning Vale, Western Australia) and were inoculated subcutaneously on the right flank with 1-3 x 106 […]
(§4) A431-CCK2R cells in PBS:Matrigel (1:1). […]
(§5) Mice were assigned to imaging and/or biodistribution groups (tumour volumes: 119-327 mm3).
(§6) The respective 68Ga labelled tracer (1.63–3.81 MBq, 170µL, 13.7–14.2 pmoles) containing vehicle solution (75µL, DMSO:Tween 80: water, 2:2:6 v/v/v) was then administered to mice intravenously via tail vein injection. Three mice were euthanized for biodistribution 1 hour post injection (n=3) and selected tissues were excised, weighed, and counted using a Capintec (Captus 4000e) gamma counter. Three mice were anaesthetised using 1.5% isoflurane and imaged at 1 hour (n=3) and 2 hours (n=3) with a G8 Small Animal PET/CT scanner (Perkin […]
(§7) Elmer/Sofie Biosciences). A 10 min static PET scan was acquired, followed immediately by a CT scan (Supplementary Data, pS51–S55). PET images were acquired using the G8 acquisition engine software and reconstructed using a 3D maximal likelihood and expectation maximization (ML-EM) algorithm. PET images were analysed using VivoQuant software, version 3.0 (inviCRO Imaging Services and Software) to quantify maximum standardised uptake value in regions of interest (SUVmax). Background regions for imaging experiments were calculated by quantitating mean standardised uptake value (SUVmean) of the abdomen and gut region. The region of interest was selected due to low uptake in abdomen/gut during imaging. After imaging the 2-hour time point, mice organs were harvested for biodistribution […]
(§8) For blocking CCK2R binding a solution of N-[(3R)-2,3-Dihydro-1-[2-(2-methylphenyl)-2-oxoethyl]-2-oxo-5-phenyl-1H-1,4-benzodiazepin-3-yl]-N′-(3-methylphenyl)-urea (YM022; Sigma Aldrich) was used. YM022 (75µL of a 1 mg/ml solution constituting DMSO:Tween 80: water, 2:2:6 v/v/v) was added to the respective 68Ga labelled tracer (1.41–3.61 MBq, 100 µL, 13.7–14.2 pmoles) and this mixture ([…]) was administered in three mice intravenously via tail vein injection and organs harvested at 1 hour post injection for biodistribution analysis, as above.
(§9) All animal experiments were performed with the approval of the Peter MacCallum Cancer Centre Animal Experimentation Ethics Committee and in accordance with the Australian code for the care and use of animals for scientific purposes, 8th Edition, 2013 (AEEC Approval

[4] = mouse, in vivo
Procedure: as §1, §2, §3, §4, §5, §6, §7, §8, §9

[5] = mouse, tissue homogenate, Half-life (t1/2) in Kidney Homogenate
[6] = mouse, tissue homogenate, Half-life (t1/2) in Liver Homogenate
[7] = 3 mg/kg, Uptake in A431-CCK2R Tumors, 1 hr Blocked
[8] = Uptake in A431-CCK2R Tumors, 1 hr

half-life [1, 5] [h] | half-life [1, 6] [h] | logD [2] | tissue to tissue ratio at 1 h [3] | SUV at 1 h [3] [SUV] | SUV at 2 h [3] [SUV] | tissue uptake at 1 h [4, 7] [%ID/g] | tissue uptake at 1 h [4, 8] [%ID/g] | tissue uptake at 2.5 h ([4]; Uptake in A431-CCK2R Tumors) [%ID/g] | tissue uptake at 1 h ([4]; Uptake in Organs: Blood) [%ID/g] | tissue uptake at 1 h ([4]; Uptake in Organs: Heart) [%ID/g] | tissue uptake at 1 h ([4]; Uptake in Organs: Kidneys) [%ID/g] | tissue uptake at 1 h ([4]; Uptake in Organs: Liver) [%ID/g] | tissue uptake at 1 h ([4]; Uptake in Organs: Lungs) [%ID/g] | tissue uptake at 1 h ([4]; Uptake in Organs: Muscle) [%ID/g] | tissue uptake at 1 h ([4]; Uptake in Organs: Spleen) [%ID/g] | tissue uptake at 1 h ([4]; Uptake in Organs: Stomach) [%ID/g] | SMILES | further results
3.76 | 5.87 | -2.88 ± 0.09 | 17.3 ± 1.84 | 0.65 | 0.61 | 2.76 ± 0.14 | 5.71 ± 1.5 | 7.36 ± 1.16 | 0.68 ± 0.31 | 0.3 ± 0.02 | 8.67 ± 0.8 | 0.3 ± 0.01 | 0.57 ± 0.03 | 0.12 ± 0.02 | 0.24 ± 0.02 | 2.22 ± 0.14 | CCCC[C@@H](C(=O)N[C@@H](CC(=O)O)C(=O)N[C@@H](Cc1cccc2ccccc12)C(N)=O)N(C)C(=O)[C@H](Cc1c[nH]c2ccccc12)NC(=O)CN(C)C(=O)[C@H](Cc1ccc(O)cc1)NC(=O)[C@H](C)NC(=O)[C@@H](CCC(=O)O)NC(=O)[C@@H](CCC(=O)O)NC(=O)[C@@H](CCC(=O)O)NC(=O)[C@@H](C)NC(=O)[C@@H](CCC(=O)O)NC(=O)[C@@H](CCC(=O)O)NC(=O)CN1CCN(CC(=O)O)CCN(CC(=O)O)CCN(CC(=O)O)CC1 [[^68Ga]Ga-DOTA-GA7, metal not drawn] ({DOTA}-[dE][dE][dA][dE][dE][dE]AY[Sar]W[NMeNle]D[1Nal]-NH2) | –
– | – | -3.56 ± 0.01 | 14.4 ± 2.23 | 0.39 | 0.34 | 2.07 ± 0.15 | 5.6 ± 1.16 | 5.42 ± 0.7 | 0.46 ± 0.08 | 0.27 ± 0.08 | 7.38 ± 1.54 | 0.29 ± 0.01 | 0.59 ± 0.02 | 0.09 ± 0.02 | 0.34 ± 0.08 | 1.04 ± 0.06 | CCCC[C@@H](C(=O)N[C@@H](CC(=O)O)C(=O)N(C)[C@@H](Cc1ccccc1)C(N)=O)N(C)C(=O)[C@H](Cc1c[nH]c2ccccc12)NC(=O)CN(C)C(=O)[C@H](Cc1ccc(O)cc1)NC(=O)[C@H](C)NC(=O)[C@@H](CCC(=O)O)NC(=O)[C@@H](CCC(=O)O)NC(=O)[C@@H](CCC(=O)O)NC(=O)[C@@H](C)NC(=O)[C@@H](CCC(=O)O)NC(=O)[C@@H](CCC(=O)O)NC(=O)CN1CCN(CC(=O)O)CCN(CC(=O)O)CCN(CC(=O)O)CC1 [[^68Ga]Ga-DOTA-GA11, metal not drawn] ({DOTA}-[dE][dE][dA][dE][dE][dE]AY[Sar]W[NMeNle]D[NMeF]-NH2) | metabolites in kidney homogenates [1]: no observable metabolites detected; metabolites in liver homogenates [1]: no observable metabolites detected
0.772 | 1.07 | -4.06 ± 0.14 | 24.9 ± 4.57 | 0.5 | 0.45 | 2.53 ± 0.11 | 6.7 ± 0.69 | 6.81 ± 1.4 | 0.29 ± 0.01 | 0.14 ± 0.01 | 4.52 ± 0.38 | 0.19 ± 0.02 | 0.34 ± 0.04 | 0.09 ± 0.02 | 0.25 ± 0.04 | 1.38 ± 0.08 | CCCC[C@@H](C(=O)N[C@@H](CC(=O)O)C(=O)N[C@@H](Cc1ccccc1)C(N)=O)N(C)C(=O)[C@H](Cc1c[nH]c2ccccc12)NC(=O)CN(C)C(=O)[C@H](Cc1ccc(O)cc1)NC(=O)[C@H](C)NC(=O)[C@@H](CCC(=O)O)NC(=O)[C@@H](CCC(=O)O)NC(=O)[C@@H](CCC(=O)O)NC(=O)[C@@H](C)NC(=O)[C@@H](CCC(=O)O)NC(=O)[C@@H](CCC(=O)O)NC(=O)CN1CCN(CC(=O)O)CCN(CC(=O)O)CCN(CC(=O)O)CC1 [[^68Ga]Ga-DOTA-GA12, metal not drawn] ({DOTA}-[dE][dE][dA][dE][dE][dE]AY[Sar]W[NMeNle]DF-NH2) | Half-life (t1/2) in Kidney Homogenate ([1]; mouse, tissue homogenate): 0.7722 h; Half-life (t1/2) in Liver Homogenate ([1]; mouse, tissue homogenate): 1.071 h
